# Key:
# [1] = test system: transgenic Arabidopsis thaliana, transgene SEQ ID NO 120; assay: Herbicide injury evaluation of Arabidopsis plants, greenhouse; format: in vivo; settings: Table 4, scale 0-100
# [2] = test system: transgenic Arabidopsis thaliana, transgene SEQ ID NO 121; assay: as above; format: in vivo; settings: Table 3, scale 0-100
# [3] = test system: Arabidopsis plants, construct hemF_tpFNR (SEQ ID NO 114); assay: Tolerance of transgenic T1 Arabidopsis plants to herbicides, greenhouse (Tolerance Factor); format: in vivo, Arabidopsis thaliana
# [4] = test system: Arabidopsis plants, construct hemG_tpsAMATU_PPO2 (SEQ ID NO 119); assay: as above; format: in vivo, Arabidopsis thaliana
# [5] = test system: transgenic Arabidopsis thaliana, transgene SEQ ID NO 117; assay: Herbicide injury evaluation of Arabidopsis plants, greenhouse; format: in vivo; settings: Table 3, scale 0-100
# [6] = test system: Arabidopsis plants, construct hemG_tplAMATU_PPO2 (SEQ ID NO 118); assay: Tolerance of transgenic T1 Arabidopsis plants to herbicides, greenhouse (Tolerance Factor); format: in vivo, Arabidopsis thaliana
# [7] = test system: Arabidopsis plants, construct OPITE_PPO_wt_tpFNR (SEQ ID NO 121); assay: as above; format: in vivo, Arabidopsis thaliana
# [8] = test system: Arabidopsis plants, construct RHOMA_PPO_wt_tpAMATU_PPO2 (SEQ ID NO 127); assay: as above; format: in vivo, Arabidopsis thaliana
# [9] = test system: empty vector-transformed leaf discs; assay: PSII yield inhibition in tobacco leaf discs (chlorophyll fluorescence, imaging PAM); format: cell-based; settings: Nicotiana benthamiana, 48 h, read-out: IC50 of PSII yield inhibition
# [10] = test system: Arabidopsis plants, construct RHOMA_PPO_F420V_tpFNR (SEQ ID NO 124); assay: Tolerance of transgenic T1 Arabidopsis plants to herbicides, greenhouse (Tolerance Factor); format: in vivo, Arabidopsis thaliana
# [11] = test system: Arabidopsis plants, construct hemF_tplAMATU_PPO2 (SEQ ID NO 115); assay: as above; format: in vivo, Arabidopsis thaliana
# [12] = test system: transgenic Arabidopsis thaliana, transgene SEQ ID NO 118; assay: Herbicide injury evaluation of Arabidopsis plants, greenhouse; format: in vivo; settings: scale 0-100
# [13] = test system: Arabidopsis plants, construct CHLSP_PPO_wt_tpFNR (SEQ ID NO 128); assay: Tolerance of transgenic T1 Arabidopsis plants to herbicides, greenhouse (Tolerance Factor); format: in vivo, Arabidopsis thaliana
# [14] = test system: Arabidopsis plants, construct hemF_tpsAMATU_PPO2 (SEQ ID NO 116); assay: as above; format: in vivo, Arabidopsis thaliana
# [15] = test system: Arabidopsis plants, construct RHOMA_PPO_wt_tpFNR (SEQ ID NO 123); assay: as above; format: in vivo, Arabidopsis thaliana
# [16] = test system: transgenic Arabidopsis thaliana, transgene SEQ ID NO 119; assay: Herbicide injury evaluation of Arabidopsis plants, greenhouse; format: in vivo; settings: Table 3, scale 0-100
# [17] = test system: Arabidopsis plants, construct hemG_tpFNR (SEQ ID NO 117); assay: Tolerance of transgenic T1 Arabidopsis plants to herbicides, greenhouse (Tolerance Factor); format: in vivo, Arabidopsis thaliana
# [18] = test system: transgenic Arabidopsis thaliana, transgene SEQ ID NO 128; assay: Herbicide injury evaluation of Arabidopsis plants, greenhouse; format: in vivo; settings: Table 3, scale 0-100
# [19] = test system: Wildtype/non-transgenic Arabidopsis thaliana; assay: as above; format: in vivo; settings: scale 0-100
compound,measurement,setting,value
"CC(C)N(C)S(=O)(=O)NC(=O)c1cc(-n2c(=O)cc(C(F)(F)F)n(C)c2=O)c(F)cc1Cl [Saflufenacil, saflufenacil]",Herbicide injury evaluation 14 days after herbicide treatment,"[1]; SEQ ID NO 120 J, 50 g ai/ha + 1% MSO",80
same,Herbicide injury evaluation 14 days after herbicide treatment,"[1]; SEQ ID NO 120 J, 150 g ai/ha + 1% MSO",83
same,Herbicide injury evaluation 14 days after herbicide treatment,"[1]; SEQ ID NO 120 J, 300 g ai/ha + 1% MSO",85
same,Herbicide injury evaluation 14 days after herbicide treatment,"[1]; SEQ ID NO 120 M, 50 g ai/ha + 1% MSO",95
same,Herbicide injury evaluation 14 days after herbicide treatment,"[1]; SEQ ID NO 120 M, 150 g ai/ha + 1% MSO",93
same,Herbicide injury evaluation 14 days after herbicide treatment,"[1]; SEQ ID NO 120 M, 300 g ai/ha + 1% MSO",88
same,Herbicide injury evaluation 14 days after herbicide treatment,"[2]; SEQ ID NO 121 G, 50 g ai/ha + 1% MSO",100
same,Herbicide injury evaluation 14 days after herbicide treatment,"[2]; SEQ ID NO 121 G, 150 g ai/ha + 1% MSO",100
same,Herbicide injury evaluation 14 days after herbicide treatment,"[2]; SEQ ID NO 121 G, 300 g ai/ha + 1% MSO",100
same,Herbicide injury evaluation 14 days after herbicide treatment,"[2]; SEQ ID NO 121 H, 50 g ai/ha + 1% MSO",100
same,Herbicide injury evaluation 14 days after herbicide treatment,"[2]; SEQ ID NO 121 H, 150 g ai/ha + 1% MSO",100
same,Herbicide injury evaluation 14 days after herbicide treatment,"[2]; SEQ ID NO 121 H, 300 g ai/ha + 1% MSO",100
same,Tolerance Factor,[3],1
same,Tolerance Factor,[4],1
same,Herbicide injury evaluation 14 days after herbicide treatment,"[5]; SEQ ID NO 117 C, 50 g ai/ha + 1% MSO",100
same,Herbicide injury evaluation 14 days after herbicide treatment,"[5]; SEQ ID NO 117 C, 150 g ai/ha + 1% MSO",98
same,Herbicide injury evaluation 14 days after herbicide treatment,"[5]; SEQ ID NO 117 C, 300 g ai/ha + 1% MSO",97
same,Herbicide injury evaluation 14 days after herbicide treatment,"[5]; SEQ ID NO 117 I, 50 g ai/ha + 1% MSO",94
same,Herbicide injury evaluation 14 days after herbicide treatment,"[5]; SEQ ID NO 117 I, 150 g ai/ha + 1% MSO",99
same,Herbicide injury evaluation 14 days after herbicide treatment,"[5]; SEQ ID NO 117 I, 300 g ai/ha + 1% MSO",95
same,Tolerance Factor,[6],2200
same,Tolerance Factor,[7],14
same,Tolerance Factor,[8],1
same,IC50,[9],0.11 µM
same,Tolerance Factor,[10],1
same,Tolerance Factor,[11],1
same,Herbicide injury evaluation 14 days after herbicide treatment,"[12]; Table 3, SEQ ID NO 118 Q, 50 g ai/ha + 1% MSO",55
same,Herbicide injury evaluation 14 days after herbicide treatment,"[12]; Table 3, SEQ ID NO 118 Q, 150 g ai/ha + 1% MSO",58
same,Herbicide injury evaluation 14 days after herbicide treatment,"[12]; Table 3, SEQ ID NO 118 Q, 300 g ai/ha + 1% MSO",68
same,Herbicide injury evaluation 14 days after herbicide treatment,"[12]; Table 3, SEQ ID NO 118 R, 50 g ai/ha + 1% MSO",5
same,Herbicide injury evaluation 14 days after herbicide treatment,"[12]; Table 3, SEQ ID NO 118 R, 150 g ai/ha + 1% MSO",65
same,Herbicide injury evaluation 14 days after herbicide treatment,"[12]; Table 3, SEQ ID NO 118 R, 300 g ai/ha + 1% MSO",48
same,Herbicide injury evaluation 14 days after herbicide treatment,"[12]; Table 4, SEQ ID NO 118 Q, 50 g ai/ha + 1% MSO",63
same,Herbicide injury evaluation 14 days after herbicide treatment,"[12]; Table 4, SEQ ID NO 118 Q, 150 g ai/ha + 1% MSO",63
same,Herbicide injury evaluation 14 days after herbicide treatment,"[12]; Table 4, SEQ ID NO 118 Q, 300 g ai/ha + 1% MSO",65
same,Herbicide injury evaluation 14 days after herbicide treatment,"[12]; Table 4, SEQ ID NO 118 R, 50 g ai/ha + 1% MSO",38
same,Herbicide injury evaluation 14 days after herbicide treatment,"[12]; Table 4, SEQ ID NO 118 R, 150 g ai/ha + 1% MSO",45
same,Herbicide injury evaluation 14 days after herbicide treatment,"[12]; Table 4, SEQ ID NO 118 R, 300 g ai/ha + 1% MSO",60
same,Tolerance Factor,[13],640
same,Tolerance Factor,[14],1
same,Tolerance Factor,[15],1
same,Herbicide injury evaluation 14 days after herbicide treatment,"[16]; SEQ ID NO 119 A, 50 g ai/ha + 1% MSO",100
same,Herbicide injury evaluation 14 days after herbicide treatment,"[16]; SEQ ID NO 119 A, 150 g ai/ha + 1% MSO",100
same,Herbicide injury evaluation 14 days after herbicide treatment,"[16]; SEQ ID NO 119 A, 300 g ai/ha + 1% MSO",100
same,Herbicide injury evaluation 14 days after herbicide treatment,"[16]; SEQ ID NO 119 B, 50 g ai/ha + 1% MSO",100
same,Herbicide injury evaluation 14 days after herbicide treatment,"[16]; SEQ ID NO 119 B, 150 g ai/ha + 1% MSO",100
same,Herbicide injury evaluation 14 days after herbicide treatment,"[16]; SEQ ID NO 119 B, 300 g ai/ha + 1% MSO",100
same,Tolerance Factor,[17],332
same,Herbicide injury evaluation 14 days after herbicide treatment,"[18]; SEQ ID NO 128 D, 50 g ai/ha + 1% MSO",93
same,Herbicide injury evaluation 14 days after herbicide treatment,"[18]; SEQ ID NO 128 D, 150 g ai/ha + 1% MSO",97
same,Herbicide injury evaluation 14 days after herbicide treatment,"[18]; SEQ ID NO 128 D, 300 g ai/ha + 1% MSO",97
same,Herbicide injury evaluation 14 days after herbicide treatment,"[18]; SEQ ID NO 128 E, 50 g ai/ha + 1% MSO",97
same,Herbicide injury evaluation 14 days after herbicide treatment,"[18]; SEQ ID NO 128 E, 150 g ai/ha + 1% MSO",97
same,Herbicide injury evaluation 14 days after herbicide treatment,"[18]; SEQ ID NO 128 E, 300 g ai/ha + 1% MSO",97
same,Herbicide injury evaluation 14 days after herbicide treatment,"[19]; Table 3, 50 g ai/ha + 1% MSO",100
same,Herbicide injury evaluation 14 days after herbicide treatment,"[19]; Table 3, 150 g ai/ha + 1% MSO",100
same,Herbicide injury evaluation 14 days after herbicide treatment,"[19]; Table 3, 300 g ai/ha + 1% MSO",100
same,Herbicide injury evaluation 14 days after herbicide treatment,"[19]; Table 4, 50 g ai/ha + 1% MSO",100
same,Herbicide injury evaluation 14 days after herbicide treatment,"[19]; Table 4, 150 g ai/ha + 1% MSO",100
same,Herbicide injury evaluation 14 days after herbicide treatment,"[19]; Table 4, 300 g ai/ha + 1% MSO",100

# From US11959086B2, “Dual transit peptides for targeting polypeptides” (BASF AGRO B.V., priority 2016, dated 2024)
